Source: patent US20250321223A1, “ENGINEERING CHEMICALLY INDUCIBLE SPLIT PROTEIN ACTUATORS (CISPA)” (KEMIJSKI INSTITUT, priority 2021, published 2025)

Tests used:
[1] = biological target: split ligand binding domain of estrogen receptor beta (ERβ) (Homo sapiens, UniProt Q92731); details: HEK293T cells, increasing ligand concentration, compared to cells not stimulated; FIG. 2C
Excerpt: (§1) The fusion constructs were simultaneously expressed in the HEK293T cell line. […] Following this dimerization, the split reporter fragments (nLuc and cLuc) are brought into the proximity, leading to their reconstitution and measurable output signal (emitted light). The plasmids encoding for the CISPA sensors based on split LBDs were transiently transfected into the HEK293T cell line. A constitutively expressed Renilla luciferase (phRL-TK http://www.promega.com/vectors/prltk.txf) was used as control of transfection efficiency.
(§2) Methods and techniques for cell line cultivation are well-known to experts in the field and are explained here only indicatively, with the intention of clarifying the example. Cell cultures of HEK293T cells were grown at 37° C. and 5% CO2. For cultivation, DMEM medium with 10% FBS, containing all the necessary nutrients and growth factors was used. When the cell population reached a sufficient density, the cells were transferred to a new flask and/or diluted. For use in experiments, the number of cells was determined by the Countess automated cell counter (Invitrogen). A 96-well microtiter plate, suitable for growing cell cultures, was inoculated with 2*10^4 cells per well 24 hours prior to transfection.

[2] = system: split ligand binding domain of glucocorticoid receptor (GR2); test: CISPA sensor, split LBD of GR2 fused to split firefly luciferase, in HEK293T cells; type: cell-based, human; details: increasing ligand concentration, compared to cells not stimulated, FIG. 2B
Excerpt: as §1, §2

[3] = system: split dihydrofolate reductase (DHFR); test: CISPA sensor, split DHFR fused to split firefly luciferase, in HEK293T cells; type: cell-based, human; details: increasing ligand concentration, compared to cells not stimulated, FIG. 3B
Experimental: as §2
A constitutively expressed Renilla luciferase (phRL-TK http://www.promega.com/vectors/prltk.txf) was used as control of transfection efficiency.

Sequence of split ligand binding domain of estrogen receptor beta (ERβ) (Q92731 with tags, fused parts or gaps): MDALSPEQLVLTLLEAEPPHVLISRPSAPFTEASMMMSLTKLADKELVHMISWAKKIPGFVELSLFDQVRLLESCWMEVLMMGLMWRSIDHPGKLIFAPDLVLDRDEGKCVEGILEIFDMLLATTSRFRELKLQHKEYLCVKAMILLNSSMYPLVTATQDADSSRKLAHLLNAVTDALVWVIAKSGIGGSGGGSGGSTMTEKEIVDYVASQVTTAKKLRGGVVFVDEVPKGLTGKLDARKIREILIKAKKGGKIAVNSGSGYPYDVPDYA
Sequence of split ligand binding domain of estrogen receptor beta (ERβ) (Q92731 with tags, fused parts or gaps): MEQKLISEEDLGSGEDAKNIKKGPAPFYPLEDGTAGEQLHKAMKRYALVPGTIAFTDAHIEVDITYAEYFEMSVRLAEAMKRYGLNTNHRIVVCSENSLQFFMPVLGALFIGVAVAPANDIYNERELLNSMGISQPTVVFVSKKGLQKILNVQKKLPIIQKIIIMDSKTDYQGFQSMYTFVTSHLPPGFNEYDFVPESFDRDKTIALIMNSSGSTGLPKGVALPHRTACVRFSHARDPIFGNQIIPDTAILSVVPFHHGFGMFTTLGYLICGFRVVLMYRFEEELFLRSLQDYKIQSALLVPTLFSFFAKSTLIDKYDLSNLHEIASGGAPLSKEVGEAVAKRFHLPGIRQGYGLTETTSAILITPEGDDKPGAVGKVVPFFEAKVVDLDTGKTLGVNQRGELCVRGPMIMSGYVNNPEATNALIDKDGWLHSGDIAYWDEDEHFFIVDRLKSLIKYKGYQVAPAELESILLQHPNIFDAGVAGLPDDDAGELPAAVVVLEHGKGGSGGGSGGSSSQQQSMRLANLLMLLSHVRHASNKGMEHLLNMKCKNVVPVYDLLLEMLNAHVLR

Compound	firefly luciferase activity (dimerization of split DHFR CISPA sensor) [3]	also measured
4-hydroxytamoxifen	–	firefly luciferase activity (dimerization of split ERβ CISPA sensor) [1]: concentration-dependent manner
C[C@]12CCC(=O)C=C1CC[C@@H]1[C@@H]2[C@@H](O)C[C@@]2(C)[C@H]1CC[C@]2(O)C(=O)CO [cortisol]	–	firefly luciferase activity (dimerization of split GR2 CISPA sensor) [2]: an increase in the firefly luciferase activity is observed
CN(Cc1cnc2nc(N)nc(N)c2n1)c1ccc(C(=O)N[C@@H](CCC(=O)O)C(=O)O)cc1 [methotrexate]	an increase in firefly luciferase activity is observed	–
C#CCC(Cc1cnc2nc(N)nc(N)c2n1)c1ccc(C(=O)N[C@@H](CCC(=O)O)C(=O)O)cc1 (stereo partly shown) [pralatrexate]	an increase in firefly luciferase activity is observed	–
